1 molecule from PMC9133015 (Nature Communications, 2022) can be followed below.

Holding throughout (experiment): Kinase inhibitor specificity profiling (Reaction Biology Corporation)
Common to all, as to type: biochemical

Experiment [1] concerns the target T1, panel of 370 protein kinases (Homo sapiens, UniProt O15111).
T1 construct: purchased Reaction Biology Corporation (assay service)
The conditions noted are these: 2 h, kinase IKKa/CHUK; read-out: % Enzyme Activity (relative to DMSO controls).

In experiment [2] the target is T2, panel of 370 protein kinases (Homo sapiens, UniProt O60307).
T2 construct: purchased Reaction Biology Corporation (assay service)
The note with it: 2 h, kinase MAST3; read-out: % Enzyme Activity (relative to DMSO controls).

Experiment [3] deals with T3, panel of 370 protein kinases (Homo sapiens, UniProt P06239).
T3 construct: purchased Reaction Biology Corporation (assay service)
The note with it: 2 h, kinase LCK; read-out: % Enzyme Activity (relative to DMSO controls).

Experiment [4] has as its target T4, panel of 370 protein kinases (Homo sapiens, UniProt P12931).
T4 construct: purchased Reaction Biology Corporation (assay service)
The note with it: 2 h, kinase c-Src; read-out: % Enzyme Activity (relative to DMSO controls).

For experiment [5], the target named is T5, panel of 370 protein kinases (Homo sapiens, UniProt P35968).
T5 construct: purchased Reaction Biology Corporation (assay service)
The conditions noted are these: 2 h, kinase KDR/VEGFR2; read-out: % Enzyme Activity (relative to DMSO controls).

Experiment [6] concerns the target T6, panel of 370 protein kinases (Homo sapiens, UniProt P36888).
T6 construct: purchased Reaction Biology Corporation (assay service)
The note with it: 2 h, kinase FLT3; read-out: % Enzyme Activity (relative to DMSO controls).

Experiment [7] concerns the target T7, panel of 370 protein kinases (Homo sapiens, UniProt P41279).
T7 construct: purchased Reaction Biology Corporation (assay service)
The conditions noted are these: 2 h, kinase COT1/MAP3K8; read-out: % Enzyme Activity (relative to DMSO controls).

The target of experiment [8] is T8, panel of 370 protein kinases (Homo sapiens, UniProt P42681).
T8 construct: purchased Reaction Biology Corporation (assay service)
The note with it: 2 h, kinase TXK; read-out: % Enzyme Activity (relative to DMSO controls).

For experiment [9], the target named is T9, panel of 370 protein kinases (Homo sapiens, UniProt P43250).
T9 construct: purchased Reaction Biology Corporation (assay service)
The note with it: 2 h, kinase GRK6; read-out: % Enzyme Activity (relative to DMSO controls).

In experiment [10] the target is T10, panel of 370 protein kinases (Homo sapiens, UniProt P53350).
T10 construct: purchased Reaction Biology Corporation (assay service)
The note with it: 2 h, kinase PLK1; read-out: % Enzyme Activity (relative to DMSO controls).

Experiment [11] deals with T11, panel of 370 protein kinases (Homo sapiens, UniProt Q02750).
T11 construct: purchased Reaction Biology Corporation (assay service)
The note with it: 2 h, kinase MEK1; read-out: % Enzyme Activity (relative to DMSO controls).

Experiment [12] concerns the target T12, panel of 370 protein kinases (Homo sapiens, UniProt Q02779).
T12 construct: purchased Reaction Biology Corporation (assay service)
The note with it: 2 h, kinase MLK2/MAP3K10; read-out: % Enzyme Activity (relative to DMSO controls).

The target of experiment [13] is T13, panel of 370 protein kinases (Homo sapiens, UniProt Q13470).
T13 construct: purchased Reaction Biology Corporation (assay service)
The note with it: 2 h, kinase TNK1; read-out: % Enzyme Activity (relative to DMSO controls).

Experiment [14] has as its target T14, panel of 370 protein kinases (Homo sapiens, UniProt Q56UN5).
T14 construct: purchased Reaction Biology Corporation (assay service)
The conditions noted are these: 2 h, kinase YSK4/MAP3K19; read-out: % Enzyme Activity (relative to DMSO controls).

Experiment [15] addresses T15, panel of 370 protein kinases (Homo sapiens, UniProt Q5VT25).
T15 construct: purchased Reaction Biology Corporation (assay service)
The note with it: 2 h, kinase MRCKa/CDC42BPA; read-out: % Enzyme Activity (relative to DMSO controls).

For experiment [16], the target named is T16, panel of 370 protein kinases (Homo sapiens, UniProt Q6XUX3).
T16 construct: purchased Reaction Biology Corporation (assay service)
The conditions noted are these: 2 h, kinase RIPK5; read-out: % Enzyme Activity (relative to DMSO controls).

Experiment [17] concerns the target T17, panel of 370 protein kinases (Homo sapiens, UniProt Q8WTQ7).
T17 construct: purchased Reaction Biology Corporation (assay service)
The conditions noted are these: 2 h, kinase GRK7; read-out: % Enzyme Activity (relative to DMSO controls).

Experiment [18] concerns the target T18, panel of 370 protein kinases (Homo sapiens, UniProt Q92630).
T18 construct: purchased Reaction Biology Corporation (assay service)
The conditions noted are these: 2 h, kinase DYRK2; read-out: % Enzyme Activity (relative to DMSO controls).

In experiment [19] the target is T19, panel of 370 protein kinases (Homo sapiens, UniProt Q9BYP7).
T19 construct: purchased Reaction Biology Corporation (assay service)
The note with it: 2 h, kinase WNK3; read-out: % Enzyme Activity (relative to DMSO controls).

For experiment [20], the target named is T20, panel of 370 protein kinases (Homo sapiens, UniProt Q9NY57).
T20 construct: purchased Reaction Biology Corporation (assay service)
The conditions noted are these: 2 h, kinase STK32B/YANK2; read-out: % Enzyme Activity (relative to DMSO controls).

The target in experiment [21] is T21, panel of 370 protein kinases (Homo sapiens, UniProt Q9UPZ9).
T21 construct: purchased Reaction Biology Corporation (assay service)
The note with it: 2 h, kinase LCK2/ICK; read-out: % Enzyme Activity (relative to DMSO controls).

T19 sequence (Q9BYP7 whole entry): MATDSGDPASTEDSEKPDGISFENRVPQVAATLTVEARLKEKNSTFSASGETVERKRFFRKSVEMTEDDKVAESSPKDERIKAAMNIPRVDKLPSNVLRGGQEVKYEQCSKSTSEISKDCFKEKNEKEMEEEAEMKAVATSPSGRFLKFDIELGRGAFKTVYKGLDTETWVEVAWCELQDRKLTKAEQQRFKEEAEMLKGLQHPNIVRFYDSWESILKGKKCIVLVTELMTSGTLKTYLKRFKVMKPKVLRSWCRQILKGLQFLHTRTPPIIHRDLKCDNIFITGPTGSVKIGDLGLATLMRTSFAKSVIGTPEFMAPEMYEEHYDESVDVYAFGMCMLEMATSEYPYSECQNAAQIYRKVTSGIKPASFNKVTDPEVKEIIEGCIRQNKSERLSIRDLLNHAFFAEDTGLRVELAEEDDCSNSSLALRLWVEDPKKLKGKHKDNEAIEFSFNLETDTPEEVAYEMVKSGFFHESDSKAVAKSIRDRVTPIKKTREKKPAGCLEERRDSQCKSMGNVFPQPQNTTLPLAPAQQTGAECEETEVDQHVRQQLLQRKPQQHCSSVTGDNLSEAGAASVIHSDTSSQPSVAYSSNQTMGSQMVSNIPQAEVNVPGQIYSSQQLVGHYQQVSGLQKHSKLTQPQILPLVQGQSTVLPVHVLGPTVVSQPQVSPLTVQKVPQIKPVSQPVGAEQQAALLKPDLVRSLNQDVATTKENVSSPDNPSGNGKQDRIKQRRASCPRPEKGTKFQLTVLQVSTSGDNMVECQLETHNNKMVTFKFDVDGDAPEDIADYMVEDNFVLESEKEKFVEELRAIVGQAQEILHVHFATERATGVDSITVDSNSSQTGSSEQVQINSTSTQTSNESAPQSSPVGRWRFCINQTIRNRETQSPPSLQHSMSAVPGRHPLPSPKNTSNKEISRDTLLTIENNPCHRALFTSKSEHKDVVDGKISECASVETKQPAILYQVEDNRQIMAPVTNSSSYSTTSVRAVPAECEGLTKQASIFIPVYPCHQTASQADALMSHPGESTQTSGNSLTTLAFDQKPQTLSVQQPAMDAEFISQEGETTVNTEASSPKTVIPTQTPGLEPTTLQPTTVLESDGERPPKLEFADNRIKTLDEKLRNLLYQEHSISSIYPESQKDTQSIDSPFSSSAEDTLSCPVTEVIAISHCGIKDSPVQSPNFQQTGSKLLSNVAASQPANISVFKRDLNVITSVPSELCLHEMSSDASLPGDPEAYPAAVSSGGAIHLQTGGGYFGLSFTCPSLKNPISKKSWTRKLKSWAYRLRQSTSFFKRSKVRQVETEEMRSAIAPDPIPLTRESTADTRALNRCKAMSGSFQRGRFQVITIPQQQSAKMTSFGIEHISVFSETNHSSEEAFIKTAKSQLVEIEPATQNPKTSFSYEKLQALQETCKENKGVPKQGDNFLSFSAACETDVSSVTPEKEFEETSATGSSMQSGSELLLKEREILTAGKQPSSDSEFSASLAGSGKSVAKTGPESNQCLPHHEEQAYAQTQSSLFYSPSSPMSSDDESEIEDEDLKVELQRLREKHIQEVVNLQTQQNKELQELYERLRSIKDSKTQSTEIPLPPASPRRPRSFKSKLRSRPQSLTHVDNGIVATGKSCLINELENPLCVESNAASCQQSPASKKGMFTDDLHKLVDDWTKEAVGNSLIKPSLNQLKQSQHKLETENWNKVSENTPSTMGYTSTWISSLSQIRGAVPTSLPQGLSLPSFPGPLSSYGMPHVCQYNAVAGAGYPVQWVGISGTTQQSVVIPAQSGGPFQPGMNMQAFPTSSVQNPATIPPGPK
T12 sequence (Q02779 whole entry): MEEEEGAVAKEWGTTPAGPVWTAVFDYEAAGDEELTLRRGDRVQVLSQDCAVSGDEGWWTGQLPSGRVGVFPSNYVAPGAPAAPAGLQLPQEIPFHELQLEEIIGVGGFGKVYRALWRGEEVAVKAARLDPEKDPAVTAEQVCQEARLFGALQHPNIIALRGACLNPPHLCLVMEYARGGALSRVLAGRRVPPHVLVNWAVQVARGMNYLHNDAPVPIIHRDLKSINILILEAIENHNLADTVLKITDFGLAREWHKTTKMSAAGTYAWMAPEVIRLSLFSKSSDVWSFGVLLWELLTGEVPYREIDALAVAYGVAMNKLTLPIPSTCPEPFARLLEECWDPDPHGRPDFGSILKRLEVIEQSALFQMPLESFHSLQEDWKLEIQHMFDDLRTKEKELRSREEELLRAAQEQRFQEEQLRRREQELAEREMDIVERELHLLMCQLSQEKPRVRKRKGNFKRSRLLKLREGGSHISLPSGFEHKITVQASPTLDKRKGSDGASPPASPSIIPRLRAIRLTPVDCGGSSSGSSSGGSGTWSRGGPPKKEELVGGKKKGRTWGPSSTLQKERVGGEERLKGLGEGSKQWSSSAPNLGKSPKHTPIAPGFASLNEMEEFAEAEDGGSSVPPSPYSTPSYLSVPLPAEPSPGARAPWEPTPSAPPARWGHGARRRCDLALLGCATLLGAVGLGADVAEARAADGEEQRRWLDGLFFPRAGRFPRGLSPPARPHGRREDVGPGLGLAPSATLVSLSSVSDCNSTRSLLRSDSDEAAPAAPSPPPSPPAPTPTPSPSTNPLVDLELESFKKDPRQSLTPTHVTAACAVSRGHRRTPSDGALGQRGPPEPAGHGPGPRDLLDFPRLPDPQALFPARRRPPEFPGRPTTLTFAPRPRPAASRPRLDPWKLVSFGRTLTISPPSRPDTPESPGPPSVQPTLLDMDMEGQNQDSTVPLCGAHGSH
T2 sequence (O60307 whole entry): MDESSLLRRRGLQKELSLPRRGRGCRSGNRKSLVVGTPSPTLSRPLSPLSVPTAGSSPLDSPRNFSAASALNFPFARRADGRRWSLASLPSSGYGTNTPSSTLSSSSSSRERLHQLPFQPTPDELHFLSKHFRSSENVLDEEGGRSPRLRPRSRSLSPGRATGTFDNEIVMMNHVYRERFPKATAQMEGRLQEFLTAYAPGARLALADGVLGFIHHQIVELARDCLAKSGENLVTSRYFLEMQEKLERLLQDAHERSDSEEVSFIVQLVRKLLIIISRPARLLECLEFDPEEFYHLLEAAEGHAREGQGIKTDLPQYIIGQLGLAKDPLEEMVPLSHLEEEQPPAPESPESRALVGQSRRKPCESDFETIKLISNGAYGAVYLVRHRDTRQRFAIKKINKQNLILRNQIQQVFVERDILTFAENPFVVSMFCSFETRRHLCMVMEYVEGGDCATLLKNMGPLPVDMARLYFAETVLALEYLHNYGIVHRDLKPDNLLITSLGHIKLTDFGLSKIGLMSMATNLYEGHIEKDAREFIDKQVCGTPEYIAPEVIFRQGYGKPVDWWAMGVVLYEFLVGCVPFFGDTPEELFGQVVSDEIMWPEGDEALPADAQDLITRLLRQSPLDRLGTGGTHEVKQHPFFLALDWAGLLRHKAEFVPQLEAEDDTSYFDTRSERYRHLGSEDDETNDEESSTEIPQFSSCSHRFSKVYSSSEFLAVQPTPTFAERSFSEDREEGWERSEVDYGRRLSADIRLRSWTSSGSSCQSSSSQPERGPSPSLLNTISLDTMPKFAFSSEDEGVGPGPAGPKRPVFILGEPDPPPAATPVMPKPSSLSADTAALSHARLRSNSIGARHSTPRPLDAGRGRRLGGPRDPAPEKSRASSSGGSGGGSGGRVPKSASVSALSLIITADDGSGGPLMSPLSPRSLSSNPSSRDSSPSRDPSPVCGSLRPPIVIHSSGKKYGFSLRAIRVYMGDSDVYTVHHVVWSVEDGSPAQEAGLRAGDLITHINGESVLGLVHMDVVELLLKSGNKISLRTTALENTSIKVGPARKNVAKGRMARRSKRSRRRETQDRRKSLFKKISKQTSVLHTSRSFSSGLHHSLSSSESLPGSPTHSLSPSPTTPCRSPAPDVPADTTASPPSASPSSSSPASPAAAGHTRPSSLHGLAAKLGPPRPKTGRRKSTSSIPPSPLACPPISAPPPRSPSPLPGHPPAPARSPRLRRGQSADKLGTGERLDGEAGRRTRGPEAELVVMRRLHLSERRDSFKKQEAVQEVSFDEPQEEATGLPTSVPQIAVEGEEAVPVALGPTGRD
T10 sequence (P53350 whole entry): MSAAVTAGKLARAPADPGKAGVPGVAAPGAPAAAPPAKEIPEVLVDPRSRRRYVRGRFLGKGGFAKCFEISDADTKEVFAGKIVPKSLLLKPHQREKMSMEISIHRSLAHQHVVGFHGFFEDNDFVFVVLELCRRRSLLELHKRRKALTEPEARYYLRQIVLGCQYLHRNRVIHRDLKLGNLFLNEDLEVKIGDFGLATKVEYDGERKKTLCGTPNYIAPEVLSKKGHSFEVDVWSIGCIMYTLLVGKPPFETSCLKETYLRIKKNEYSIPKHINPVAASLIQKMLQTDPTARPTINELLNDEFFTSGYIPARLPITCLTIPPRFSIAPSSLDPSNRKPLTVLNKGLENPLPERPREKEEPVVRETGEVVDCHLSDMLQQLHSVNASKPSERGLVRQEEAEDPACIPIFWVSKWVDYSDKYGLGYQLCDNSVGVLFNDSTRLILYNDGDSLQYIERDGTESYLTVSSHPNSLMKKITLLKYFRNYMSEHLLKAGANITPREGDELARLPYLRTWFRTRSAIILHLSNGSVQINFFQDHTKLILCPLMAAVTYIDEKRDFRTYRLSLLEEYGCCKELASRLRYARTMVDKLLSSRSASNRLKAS
T20 sequence (Q9NY57 whole entry): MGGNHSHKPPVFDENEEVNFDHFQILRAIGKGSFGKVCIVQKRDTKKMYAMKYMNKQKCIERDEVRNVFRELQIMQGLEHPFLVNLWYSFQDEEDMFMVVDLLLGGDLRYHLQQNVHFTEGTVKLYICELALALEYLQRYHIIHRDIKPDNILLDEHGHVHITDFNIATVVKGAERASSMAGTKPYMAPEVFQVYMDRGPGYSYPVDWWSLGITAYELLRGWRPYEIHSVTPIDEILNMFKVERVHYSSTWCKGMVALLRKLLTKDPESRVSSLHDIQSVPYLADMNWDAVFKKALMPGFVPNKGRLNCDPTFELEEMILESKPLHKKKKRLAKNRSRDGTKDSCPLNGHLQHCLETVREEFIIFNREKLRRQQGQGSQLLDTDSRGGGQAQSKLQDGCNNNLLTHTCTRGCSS

Turning to `CCN1CCN(C(=O)c2ccc(Nc3ncc(F)c(-c4ccc5nc(N(C)C)sc5c4)n3)nc2)CC1` [YK-2-69], the remaining activity at 1 µM was 77.1% in experiment [1]; 88.1% in experiment [2]; 101% in experiment [3]; 99.7% in [4]; 88.6% in experiment [5]; 92.7% in experiment [6]. For the same molecule, the remaining activity at 1 µM in experiment [7] was found to be 96.1%; in [8] it was 95.6%; in experiment [9], 114%; in experiment [10], 115%; in experiment [11], 100%; in experiment [12], 81.7%. The remaining activity at 1 µM in experiment [13] is 95.3%; in experiment [14], 97.8%; in experiment [15], 111%; in experiment [16] it was 111%; in experiment [17], 102%; in experiment [18], 5.23%. Further, the values for the remaining activity at 1 µM in [19], in experiment [20] and in [21] were 98.9%, 103% and 99.2%, respectively.
